In PubChem BioAssay (NCI):
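GI50 marks 50% less growth. TGI is the concentration that stops growth completely.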

Experiments:
Assay in all cases: DTP human tumour cell line panel, 384-well format
BT-549 breast = tested on: BT-549 breast
UO-31 renal = tested on: UO-31 renal
SK-MEL-28 melanoma = tested on: SK-MEL-28 melanoma
SK-MEL-2 melanoma = tested on: SK-MEL-2 melanoma
TK-10 renal = tested on: TK-10 renal
HL-60(TB) leukemia = tested on: HL-60(TB) leukemia
MDA-MB-435 melanoma = tested on: MDA-MB-435 melanoma
ACHN renal = tested on: ACHN renal
OVCAR-4 ovarian = tested on: OVCAR-4 ovarian
IGROV1 ovarian = tested on: IGROV1 ovarian
NCI-H226 lung = tested on: NCI-H226 lung
U251 glioblastoma = tested on: U251 glioblastoma
UACC-257 melanoma = tested on: UACC-257 melanoma
NCI-H460 NSCLC = tested on: NCI-H460 NSCLC
EKVX NSCLC = tested on: EKVX NSCLC
K-562 leukemia = tested on: K-562 leukemia
786-0 renal = tested on: 786-0 renal
NCI-H522 lung = tested on: NCI-H522 lung
COLO 205 colon = tested on: COLO 205 colon
NCI-H23 lung = tested on: NCI-H23 lung
SNB-19 CNS = tested on: SNB-19 CNS
UACC-62 melanoma = tested on: UACC-62 melanoma
SK-OV-3 ovarian = tested on: SK-OV-3 ovarian
T-47D breast = tested on: T-47D breast
SR leukemia = tested on: SR leukemia
HCT-116 colon = tested on: HCT-116 colon
OVCAR-3 ovarian = tested on: OVCAR-3 ovarian
OVCAR-8 ovarian = tested on: OVCAR-8 ovarian
SF-539 CNS = tested on: SF-539 CNS
HS 578T breast = tested on: HS 578T breast
PC-3 prostate = tested on: PC-3 prostate
CCRF-CEM leukemia = tested on: CCRF-CEM leukemia
SN12C renal = tested on: SN12C renal
HOP-62 NSCLC = tested on: HOP-62 NSCLC
MOLT-4 leukemia = tested on: MOLT-4 leukemia
SNB-75 CNS = tested on: SNB-75 CNS
DU-145 prostate = tested on: DU-145 prostate
MDA-MB-231 breast = tested on: MDA-MB-231 breast
HCC-2998 colon = tested on: HCC-2998 colon
NCI/ADR-RES ovarian = tested on: NCI/ADR-RES ovarian
A498 renal = tested on: A498 renal
HOP-92 NSCLC = tested on: HOP-92 NSCLC
MDA-MB-468 breast = tested on: MDA-MB-468 breast
SF-268 CNS = tested on: SF-268 CNS
A549 NSCLC = tested on: A549 NSCLC
SK-MEL-5 melanoma = tested on: SK-MEL-5 melanoma
MALME-3M melanoma = tested on: MALME-3M melanoma
RPMI-8226 leukemia = tested on: RPMI-8226 leukemia
RXF 393 renal = tested on: RXF 393 renal
KM12 colon = tested on: KM12 colon
NCI-H322M lung = tested on: NCI-H322M lung
SF-295 CNS = tested on: SF-295 CNS
M14 melanoma = tested on: M14 melanoma
SW-620 colon = tested on: SW-620 colon
HCT-15 colon = tested on: HCT-15 colon
LOX IMVI melanoma = tested on: LOX IMVI melanoma
OVCAR-5 ovarian = tested on: OVCAR-5 ovarian
CAKI-1 renal = tested on: CAKI-1 renal

## CC[C@@]1(O)C(=O)OCc2c1cc1n(c2=O)Cc2c-1nc1cc(F)c(C)c3c1c2[C@@H](NC(=O)CO)CC3
BT-549 breast
  GI50: < 10 nM
  TGI: 40.2 nM
UO-31 renal
  GI50: 20.6 nM
  TGI: 116 nM
SK-MEL-28 melanoma
  GI50: < 10 nM
  TGI: 270 nM
SK-MEL-2 melanoma
  GI50: 33.1 nM
  TGI: 105 nM
TK-10 renal
  GI50: 47.6 nM
  TGI: 1660 nM
HL-60(TB) leukemia
  GI50: < 10 nM
  TGI: < 10 nM
MDA-MB-435 melanoma
  GI50: 24.3 nM
  TGI: 467 nM
ACHN renal
  GI50: < 10 nM
  TGI: 11.1 nM
OVCAR-4 ovarian
  GI50: 131 nM
  TGI: 419 nM
IGROV1 ovarian
  GI50: 12.8 nM
  TGI: 1140 nM
NCI-H226 lung
  GI50: < 10 nM
  TGI: 49.6 nM
U251 glioblastoma
  GI50: < 10 nM
  TGI: 13.6 nM
UACC-257 melanoma
  GI50: 19.4 nM
  TGI: 226 nM
NCI-H460 NSCLC
  GI50: < 10 nM
  TGI: 23.4 nM
EKVX NSCLC
  GI50: 42.9 nM
  TGI: 2650 nM
K-562 leukemia
  GI50: < 10 nM
  TGI: 171 nM
786-0 renal
  GI50: < 10 nM
  TGI: 10.1 nM
NCI-H522 lung
  GI50: < 10 nM
  TGI: 19 nM
COLO 205 colon
  GI50: < 10 nM
  TGI: 537 nM
NCI-H23 lung
  GI50: < 10 nM
  TGI: < 10 nM
SNB-19 CNS
  GI50: < 10 nM
  TGI: 12.7 nM
UACC-62 melanoma
  GI50: < 10 nM
  TGI: < 10 nM
SK-OV-3 ovarian
  GI50: < 10 nM
  TGI: 28.1 nM
T-47D breast
  GI50: < 10 nM
  TGI: 101 nM
SR leukemia
  GI50: < 10 nM
  TGI: < 10 nM
HCT-116 colon
  GI50: < 10 nM
  TGI: 159 nM
OVCAR-3 ovarian
  GI50: < 10 nM
  TGI: 38.4 nM
OVCAR-8 ovarian
  GI50: < 10 nM
  TGI: 104 nM
SF-539 CNS
  GI50: < 10 nM
  TGI: 15.6 nM
HS 578T breast
  GI50: < 10 nM
  TGI: 2360 nM
PC-3 prostate
  GI50: 97.3 nM
  TGI: 3880 nM
CCRF-CEM leukemia
  GI50: < 10 nM
  TGI: < 10 nM
SN12C renal
  GI50: < 10 nM
  TGI: < 10 nM
HOP-62 NSCLC
  GI50: < 10 nM
  TGI: < 10 nM
MOLT-4 leukemia
  GI50: < 10 nM
  TGI: < 10 nM
SNB-75 CNS
  GI50: < 10 nM
  TGI: 10.8 nM
DU-145 prostate
  GI50: < 10 nM
  TGI: < 10 nM
MDA-MB-231 breast
  GI50: 99.6 nM
  TGI: 1520 nM
HCC-2998 colon
  GI50: 15.6 nM
  TGI: 212 nM
NCI/ADR-RES ovarian
  GI50: 53.6 nM
  TGI: 256 nM
A498 renal
  GI50: < 10 nM
  TGI: 142 nM
HOP-92 NSCLC
  GI50: < 10 nM
  TGI: 58.9 nM
MDA-MB-468 breast
  GI50: < 10 nM
  TGI: < 10 nM
SF-268 CNS
  GI50: < 10 nM
  TGI: < 10 nM
A549 NSCLC
  GI50: 49.8 nM
  TGI: 944 nM
SK-MEL-5 melanoma
  GI50: < 10 nM
  TGI: 16.4 nM
MALME-3M melanoma
  GI50: < 10 nM
  TGI: 237 nM
RPMI-8226 leukemia
  GI50: < 10 nM
  TGI: 20.6 nM
RXF 393 renal
  GI50: < 10 nM
  TGI: < 10 nM
KM12 colon
  GI50: 11.6 nM
  TGI: 149 nM
NCI-H322M lung
  GI50: 54.2 nM
  TGI: 684 nM
SF-295 CNS
  GI50: < 10 nM
  TGI: < 10 nM
M14 melanoma
  GI50: < 10 nM
  TGI: 12.8 nM
SW-620 colon
  GI50: < 10 nM
  TGI: 223 nM
HCT-15 colon
  GI50: 17.5 nM
  TGI: 1180 nM
LOX IMVI melanoma
  GI50: < 10 nM
  TGI: 37.5 nM
OVCAR-5 ovarian
  GI50: 35.2 nM
  TGI: 268 nM
CAKI-1 renal
  GI50: < 10 nM
  TGI: 103 nM
